Measured values as given in paper PMC7970121, “Combination With Tomatidine Improves the Potency of Posaconazole Against Trypanosoma cruzi” (Frontiers in Cellular and Infection Microbiology, 2021).
“Also recorded” adds a separate entry of the source. Where a name gives a salt, the structure may show the parent alone. Read-outs that look alike come from different tables or passages of the source.

Columns and labels:
[1] = Cytotoxicity against L6 cells (resazurin, 72 h); type: cell-based, rat
Protocol: Rat skeletal myoblasts (L6 cell lines) were seeded in 96-well plates (4 × 10^4 cells/well) in 100 μl RPMI 1640 medium supplemented with 10% fetal bovine serum (FBS) and 2 mM L-glutamine. After 24 h incubation the medium was replaced with 100 μl of fresh medium with or without a serial dilution of compound concentrations (eleven three-fold dilution steps). After 72 h of compound exposure, fluorescent dye resazurin (10 μl, 12.5 mg resazurin dissolved in 100 ml water) was added for 2 h and the readings performed at Spectramax Gemini XS microplate fluorometer (Molecular Devices Cooperation, USA), with excitation wavelength of 536 nm and an emission wavelength of 588 nm. Growth was expressed as percentage of the values of solvent-treated controls. The graphics program Softmax Pro (Molecular Devices) was used to construct dose–response curves and calculate EC50 values. Podophyllotoxin (a microtubule destabilizing agent) was used as positive control.

[2] = tested on: Trypanosoma cruzi epimastigotes (STIB 980 strain); experiment: Activity on T. cruzi epimastigotes (resazurin, 72 h); type: cell-based
Protocol: (§1) L6 cells derived from rat skeletal myoblast (ATCC CRL-1458) were used as host cells for T. cruzi using trypomastigotes of Tulahuen C2C4 strain (DTU VI) expressing the β-galactosidase gene (LacZ) ([Buckner et al., 1996]). The cultures were sustained in RPMI-1640 supplemented with 10% inactivated fetal bovine serum (FBS) and […] at 5% CO2 and 37°C. Epimastigote T. cruzi (STIB 980 strain, DTU TcI) were cultivated at 28°C in liver infusion tryptose (LIT) medium supplemented with hemin (2 μg/ml) and 10% FBS and were used in log phase of growth. Bloodstream trypomastigotes (Y strain, DTU II) were isolated from Swiss Webster mice infected at the peak of parasitemia (≥ 2.5 × 10^6/ml), as reported ([Meirelles et al., 1986]).
Epimastigotes (10^7 parasites/ml) were incubated for 72 h at 28°C with serially diluted compound concentrations (eleven 1:3 dilutions) in supplemented LIT medium. Parasite viability and motility were evaluated by direct observation by light microscopy and fluorometric assays performed with resazurin (12.5 mg resazurin dissolved in 100 ml distilled water). After 2–4 h of incubation with resazurin solution, plates were read in Spectramax Gemini XS microplate fluorometer (Molecular Devices Cooperation, USA) using wavelengths of 536 nm (excitation) and 588 nm (emission) ([Räz et al., 1997]). Growth was expressed as percentage of the values of solvent-treated controls. The graphics program Softmax Pro (Molecular Devices) was used to construct dose–response curves and calculate EC50 (half maximal inhibitory concentration) values. Bz was used as reference drug.

[3] = tested on: Trypanosoma cruzi intracellular amastigotes (Tulahuen strain in rat L6 myoblasts); experiment: Activity on T. cruzi intracellular amastigotes in L6 cells (LacZ/CPRG, 96 h); type: cell-based; settings: for EC50: read-out: Amastigotes (mean ± SD) EC50; for EC90: read-out: Amastigotes (mean ± SD) EC90
Protocol: as §1
Rat skeletal myoblasts (L6 cell lines) were seeded in 96-well plates (10^4 cells/well) in 100 μl RPMI 1640 medium supplemented with 10% fetal bovine serum (FBS) and 2 mM L-glutamine. The medium was removed after 24 h incubation and replaced by 100 μl of fresh medium containing 10^5 LacZ trypomastigotes (Tulahuen DTU VI). After 48 h, the medium was again removed and replaced with or without a serial of compound concentrations (eleven three-fold dilution steps). After 96 h of compound exposure, CPRG/Nonidet (50 μl) substrate was added and the reading performed after 2–6 h at 540 nm in Versamax microplate reader (Molecular Devices Cooperation, USA). Growth was expressed as percentage of the values of solvent-treated controls. The graphics program Softmax Pro (Molecular Devices) was used to construct dose–response curves and calculate EC50 values. Bz was used as reference drug.

[4] = Toxicity in female mice after p.o. administration; type: in vivo; settings: up to 200 mpk (data not shown)
[5] = tested on: T. cruzi (Y strain); experiment: Mouse model of acute T. cruzi infection: parasitemia and mortality; type: in vivo, Trypanosoma cruzi
Protocol: Male Swiss Webster mice (18–23 g) were obtained from the Instituto de Ciência e Tecnologia em Biomodelos (ICTB/Fiocruz) (Rio de Janeiro, Rio de Janeiro, Brazil). Five mice were housed per cage, kept in a conventional room at 20–24°C under 12 h/12 h light/dark cycle. Sterilized water and chow were provided ad libitum. The animals were acclimated for 7 days before being used in the different assays. All procedures were done following Biosafety Guidelines in compliance with the Fiocruz and all animal procedure approved by the Committee of Ethics for the Use of Animals (CEUA L-38/17).
Male mice (n = 5 per group) were infected i.p. with 10^4 bloodstream trypomastigotes of T. cruzi (Y strain). Only mice with positive parasitemia at day 5 post infection (dpi) were included in the studies. […] Uninfected and T. cruzi-infected mice treated only with vehicle (aqueous solution of 0.5% carboxymethylcellulose) were age-matched and housed under identical conditions and used as controls ([Simões-Silva et al., 2017]). All compound formulations were freshly prepared before every administration.
All animals were individually checked for circulating blood parasitemia by counting the number of parasites in 5 µl of blood taken from the tail vein and investigated under the microscope ([Brener, 1962]). Parasitemia was checked till 30 dpi, while mortality was checked daily up to 30 days after the administration of the last dose. Mortality was given as percentage of cumulative mortality (CM) ([Simões-Silva et al., 2017]).

[6] = tested on: T. cruzi epimastigote cultures; parameters: method as in Chataing et al., 1998; settings: after four days of incubation; ref Chataing et al., 1998; read-out: Concentration inhibiting growth of epimastigote cultures to 50%; cited from earlier work
[7] = STIB980, STIB 980 strain, 72 h, n = 3, read-out: Epimastigotes (mean ± SD) EC50
[8] = STIB980, STIB 980 strain, 72 h, n = 3, read-out: Epimastigotes (mean ± SD) EC90
[9] = EC50 on mammalian L6 cells versus EC50 on intracellular amastigotes
[10] = Trypanosoma cruzi, TULAHUEN, L6, 96 h, Tulahuen strain in rat L6 myoblasts, 96 h, n = 3
[11] = Trypanosoma cruzi, Tulahuen strain in rat L6 myoblasts, 96 h, n = 3
[12] = rat L6 myoblasts, 72 h, n = 3, read-out: L6 cells (mean ± SD) EC50
[13] = Tulahuen strain in rat L6 myoblasts, 96 h, n = 3
[14] = L6 rat skeletal myoblast cells, rat L6 myoblasts, 72 h, n = 3, read-out: L6 cells (mean ± SD) EC50
[15] = Trypanosoma cruzi, TULAHUEN, L6, 96 h
[16] = TH alone, all tested doses (up to 5 mpk) p.o., 10 days, mice

SMILES | EC50 at 72 h ([1]; rat) | EC50 [2, 7] | EC90 [2, 8] | SI (Selectivity Index) [3, 9] | EC50 [3, 10] | EC90 [3, 11] | other results
NC1CN2CCC1CC2 (stereo not shown) [3-Amino quinuclidine dihydrochloride, 3-Amino quinuclidine] | > 502 µM | > 502 µM | > 502 µM | >1.8 | 268 ± 10 µM | 485 ± 28 µM | –
OCC1C(O)C(O)C(O)CN1CCCCCOCC12CC3CC(CC(C3)C1)C2 (stereo not shown) [AMP-Deoxy nojirimycin, AMP-Deoxynojirimycin] | 40.4 ± 10.9 µM | 158 ± 5.9 µM | 237 ± 2 µM | 1.2 | 34.8 ± 15.1 µM | 66.6 ± 15.4 µM | –
CN(C)CCC=C1c2ccccc2CCc2ccccc21 [Amitriptyline (hydrochloride), Amitriptyline] | – | 59.9 ± 5.4 µM | 96.8 ± 3.3 µM | 1.4 | 12.2 ± 3.6 µM | 20.9 ± 3 µM | EC50 at 72 h [1, 12]: 17.2 ± 1.2 µM
O=C(Cn1ccnc1[N+](=O)[O-])NCc1ccccc1 [Benznidazole] | > 384 µM | 13.9 ± 2.2 µM | 101 ± 18 µM | >172 | 2.2 µM | 6.61 ± 2.5 µM | EC50 [3, 13]: 2.22 ± 0.98 µM
CC(C)(Oc1ccc(CCNC(=O)c2ccc(Cl)cc2)cc1)C(=O)O [Bezafibrate] | – | > 276 µM | > 276 µM | – | 132 ± 38.6 µM | 226 ± 65 µM | EC50 at 72 h [1, 14]: > 276 µM; SI (Selectivity Index) [3]: >2.1
S=C(S)OC1CC2CC1C1CCCC21 (stereo not shown) [D609 (potassium salt), D609] | – | 154 ± 32 µM | > 375 µM | – | 99.4 ± 17.6 µM | 198 ± 32 µM | EC50 at 72 h [1, 14]: 247 ± 20 µM; SI (Selectivity Index) [3]: 2.5
CCCCCCCCc1ccc(CCC(N)(CO)COP(=O)(O)O)cc1 (stereo not shown) [FTY720 Phosphate, FTY720-P] | 127 ± 22 µM | > 258 µM | > 258 µM | 1.4 | 93.8 ± 3.3 µM | 168 ± 25 µM | –
CCCCCCCCc1ccc(CCC(N)(CO)CO)cc1 [FTY720] | 0.39 ± 0.1 µM | 7.55 ± 0.4 µM | 11.6 ± 0.3 µM | 0.5 | ≤ 1 µM | 1.84 ± 1.3 µM | EC50 [3, 13]: 0.81 ± 0.5 µM
CCCCC(C)C(OC(=O)CC(CC(=O)O)C(=O)O)C(CC(C)CC(O)CCCCC(O)CC(O)C(C)N)OC(=O)CC(CC(=O)O)C(=O)O (stereo not shown) [Fumonisin B1] | – | – | – | >1.8 | – | – | EC50 at 72 h [1, 12]: > 92 µM; EC50 ([2]; STIB980, 72 h, read-out: Epimastigotes (mean ± SD) EC50): > 92 µM; EC90 ([2]; STIB980, 72 h, read-out: Epimastigotes (mean ± SD) EC90): > 92 µM; EC50 [3, 15]: 50.8 ± 5.7 µM; EC90 [3, 15]: 84 ± 9.1 µM
O=C(/C=C/c1ccc(/C=C/C(=O)Nc2ccc(C3=NCCN3)cc2)cc1)Nc1ccc(C2=NCCN2)cc1 [GW4869 (hydrochloride hydrate), GW4869] | – | > 173 µM | > 173 µM | >1.7 | 106 ± 44 µM | > 173 µM | EC50 at 72 h [1, 12]: > 173 µM
CCCCCCC(=O)CCCCCC/C=C/C[C@@H](O)[C@H](O)[C@@](N)(CO)C(=O)O [Myriocin] | – | > 249 µM | > 249 µM | >1.9 | 130 ± 34 µM | 231 ± 25 µM | EC50 at 72 h [1, 12]: > 249 µM
CCCCCCCCCC(=O)NC(CN1CCOCC1)C(O)c1ccccc1 (stereo not shown) [PDMP (hydrochloride), PDMP] | – | 47.9 ± 9.4 µM | 88.7 ± 18 µM | – | 12.5 ± 2.9 µM | 24.6 ± 9 µM | EC50 at 72 h [1, 14]: 33.5 ± 3.1 µM; SI (Selectivity Index) [3]: 2.7
CC[C@@H]([C@H](C)O)n1ncn(-c2ccc(N3CCN(c4ccc(OC[C@@H]5CO[C@@](Cn6cncn6)(c6ccc(F)cc6F)C5)cc4)CC3)cc2)c1=O [Posaconazole] | > 1.42 µM | > 14.2 µM | > 14.2 µM | >700 | 0.002 ± 0.001 µM | 0.016 ± 0.005 µM | Signs of toxicity [4]: did not show any signs of toxicity; Decrease of the parasitemia peak ([5]; Posa 1.25 mpk (suboptimal dose) p.o., 10 days (5-14 dpi), mice): about 80%; Animal survival ([5]; Posa 1.25 mpk p.o., 10 days (5-14 dpi)): 20%; Survival of mice ([5]; Posa 10 mpk p.o., 10 days (5-14 dpi)): 40%; Effect on parasitemia on the peak (8 dpi) ([5]; Posa 10 mpk p.o., 10 days (5-14 dpi), mice): suppressed parasitemia on the peak
C1CN2CCC1CC2 [Quinuclidine hydrochloride, Quinuclidine] | – | > 677 µM | > 677 µM | – | 478 ± 174 µM | > 677 µM | EC50 at 72 h [1, 14]: > 677 µM; SI (Selectivity Index) [3]: >1.4
C=CCN(C)CCCCCCOc1ccc(C(=O)c2ccc(Br)cc2)c(F)c1 [Ro48-8071] | 5.7 ± 2.4 µM | 11.6 ± 6.1 µM | 29.4 ± 16.2 µM | 12 | – | 2.5 ± 1.9 µM | EC50 ([3]; Tulahuen strain in rat L6 myoblasts, 96 h, n = 3, listed as RO48-8071): ≤ 1 µM; EC50 [3, 13]: 0.47 ± 0.09 µM
Cc1cc2ncc(NC(=O)Nc3ccc(F)cc3F)c(-c3ccccc3Cl)c2cc1C [TMP-153] | 0.12 ± 0.03 µM | 106 ± 27 µM | > 228 µM | 1.4 | – | 3.9 ± 2.1 µM | –
C[C@H]1CC[C@]2(NC1)O[C@H]1C[C@H]3[C@@H]4CC[C@H]5C[C@@H](O)CC[C@]5(C)[C@H]4CC[C@]3(C)[C@H]1[C@@H]2C [Tomatidine (hydrochloride), Tomatidine] | – | 192 ± 8.1 µM | > 221 µM | 115 | ≤ 1 µM | 1.8 ± 0.2 µM | EC50 [6]: 5.7 µM; Signs of toxicity [4]: did not show any signs of toxicity; EC50 at 72 h [1, 12]: 89.5 ± 26.7 µM; Maximum reduction in blood parasitemia on the peak [5, 16]: ≤ 28%; Protection against mortality induced by the infection [5, 16]: all animals died by 20 dpi; Antiparasitic activity in vivo ([5]; TH alone, doses 0.5 to 5 mg/kg, acute mouse model, listed as TH): lack of antiparasitic activity; also recorded: did not present antiparasitic activity; EC50 [3, 13]: 0.78 ± 0.2 µM
